# pEC50, pKi: −log10 of the molar value.
# Assays:
# Conditions in all cases: read-out: DPT
# [1] = biological target: T1, human 5-HT2A receptor (h5-HT2AR) (Homo sapiens, UniProt P28223); test: TRUPATH BRET2 G protein activation assay, HEK293T; assay type: cell-based
# T1 construct: gene HTR2A; receptor cDNA (cDNA Resource Center) transiently expressed in HEK293T; with Rluc8-Galphaq, Gbeta3, GFP2-Ggamma9 for function
# Excerpt: TRUPATH BRET2 G protein activation assay, HEK293T on human 5-HT2A receptor (h5-HT2AR)
# [2] = biological target: T2, human 5-HT1B receptor (h5-HT1BR) (Homo sapiens, UniProt P28222); test: TRUPATH BRET2 G protein activation assay, HEK293T; assay type: cell-based
# T2 construct: gene HTR1B; receptor cDNA (cDNA Resource Center) transiently expressed in HEK293T; with Rluc8-Galphai3, Gbeta3, GFP2-Ggamma9 for function
# T2 sequence (P28222 whole entry): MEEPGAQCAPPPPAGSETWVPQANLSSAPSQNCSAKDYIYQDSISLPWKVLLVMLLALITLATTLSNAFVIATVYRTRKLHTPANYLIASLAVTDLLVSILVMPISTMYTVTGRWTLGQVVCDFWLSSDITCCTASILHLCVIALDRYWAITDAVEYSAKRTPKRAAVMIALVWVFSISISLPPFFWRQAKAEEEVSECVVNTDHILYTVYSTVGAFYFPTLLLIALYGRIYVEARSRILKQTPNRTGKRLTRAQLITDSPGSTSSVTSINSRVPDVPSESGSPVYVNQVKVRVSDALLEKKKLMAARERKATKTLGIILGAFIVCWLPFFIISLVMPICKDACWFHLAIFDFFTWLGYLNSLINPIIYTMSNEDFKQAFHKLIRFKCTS
# Excerpt: TRUPATH BRET2 G protein activation assay, HEK293T on human 5-HT1B receptor (h5-HT1BR)
# [3] = biological target: T3, human 5-HT1A receptor (h5-HT1AR) (Homo sapiens, UniProt P08908); test: radioligand competition binding, cell membranes
# T3 construct: gene HTR1A; receptor cDNA (cDNA Resource Center) transiently expressed in HEK293T; with Rluc8-Galphai3, Gbeta3, GFP2-Ggamma9 for function
# T3 sequence (P08908 whole entry): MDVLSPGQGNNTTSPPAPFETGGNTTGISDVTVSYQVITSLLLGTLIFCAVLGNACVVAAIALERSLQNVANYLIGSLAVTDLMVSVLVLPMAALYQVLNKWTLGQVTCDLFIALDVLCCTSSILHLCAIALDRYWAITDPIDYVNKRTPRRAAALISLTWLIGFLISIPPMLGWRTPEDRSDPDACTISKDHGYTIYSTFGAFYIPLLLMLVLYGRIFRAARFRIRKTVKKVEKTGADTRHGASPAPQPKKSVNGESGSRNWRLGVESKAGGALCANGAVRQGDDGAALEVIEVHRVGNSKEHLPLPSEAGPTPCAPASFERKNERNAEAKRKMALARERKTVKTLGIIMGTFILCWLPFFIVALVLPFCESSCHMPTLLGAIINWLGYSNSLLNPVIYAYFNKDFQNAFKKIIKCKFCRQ
# Excerpt: radioligand competition binding, cell membranes on human 5-HT1A receptor (h5-HT1AR)
# [4] = biological target: T1, human 5-HT2A receptor (h5-HT2AR); test: radioligand competition binding, cell membranes
# Excerpt: radioligand competition binding, cell membranes on human 5-HT2A receptor (h5-HT2AR)
# [5] = biological target: T3, human 5-HT1A receptor (h5-HT1AR); test: TRUPATH BRET2 G protein activation assay, HEK293T; assay type: cell-based
# Excerpt: TRUPATH BRET2 G protein activation assay, HEK293T on human 5-HT1A receptor (h5-HT1AR)
# [6] = biological target: T2, human 5-HT1B receptor (h5-HT1BR); test: radioligand competition binding, cell membranes
# Excerpt: radioligand competition binding, cell membranes on human 5-HT1B receptor (h5-HT1BR)
# T1 sequence (P28223 whole entry): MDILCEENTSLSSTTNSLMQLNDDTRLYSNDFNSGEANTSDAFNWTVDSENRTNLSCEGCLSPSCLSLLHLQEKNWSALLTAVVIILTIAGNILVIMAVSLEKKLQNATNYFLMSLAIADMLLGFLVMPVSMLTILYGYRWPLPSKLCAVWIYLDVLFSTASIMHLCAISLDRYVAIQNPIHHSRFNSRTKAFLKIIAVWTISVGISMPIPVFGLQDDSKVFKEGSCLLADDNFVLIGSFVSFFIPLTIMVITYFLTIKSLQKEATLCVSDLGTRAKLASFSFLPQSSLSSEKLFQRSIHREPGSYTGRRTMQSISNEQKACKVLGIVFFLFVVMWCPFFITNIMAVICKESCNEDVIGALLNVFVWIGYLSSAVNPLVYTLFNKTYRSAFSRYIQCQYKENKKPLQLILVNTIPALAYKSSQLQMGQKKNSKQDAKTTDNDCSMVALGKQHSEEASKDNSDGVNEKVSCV
smiles,measurement,setting,value
CCCN(CCC)CCc1c[nH]c2ccccc12 [DPT],pEC50,[1],6.35
same,pEC50,[2],5.92
same,pKi,[3],5.78
same,pKi,[4],8.52
same,pEC50,[5],5.61
same,pKi,[6],5.09
